From US20230322761A1, “DEGRADATION OF BRUTON'S TYROSINE KINASE (BTK) BY CONJUGATION OF BTK INHIBITORS WITH E3 LIGASE LIGAND AND METHODS OF USE” (BEIGENE, LTD., priority 2020, published 2023)

Biological target: T1, BTK (Homo sapiens, UniProt Q06187)
T1 construct: endogenous in cells; host or cells: TMD-8 cells
Experiment: BTK degradation in TMD-8 cells, HTRF assay after 6 h treatment
Format: cell-based
Settings: for DC50: IC50 (DC50) of BTK degradation; for Dmax: TMD8, maximum percentage of inhibition (degradation)
Method: TMD-8 cells are treated with compounds diluted in 0.2% DMSO, dilution is done according to the following protocol: (1) make 500× stock solution in DMSO from 1 mM by 6-fold dilution, total 8 doses were included; (2) make 2× solution in cell culture medium by transferring 0.5 μl 500× stock solution into 125 μl medium; (3) 15 μl of 2× solution is added to cells and incubate for 6 h.
After 6 h treatment, add 10 μl 4×lysis buffer to each well; seal the plate and incubate 30 min at room temperature on a plate shaker; Once the cells are lysed, 16 μL of cell lysate are transferred to a PE 384-well HTRF detection plate; 4 μL of pre-mixed HTRF antibodies are added to each well; Cover the plate with a plate sealer, spin 1000 rpm for 1 min, Incubate overnight at room temperature; Read on BMG PheraStar with HTRF protocol (337 nm-665 nm-620 nm).
The IC50 (DC50) value of a compound can be obtained by fitting the following equation
Y=Bottom+(TOP−Bottom)/(1+((IC50/X)^hillslope))
Wherein, X and Y are known values, and IC50, Hillslope, Top and Bottom are the parameters obtained by fitting with software. Y is the inhibition percentage (calculated from the equation), X is the concentration of the compound; IC50 is the concentration of the compound when the 50% inhibition is reached. The smaller the IC50 value is, the stronger the inhibitory ability of the compound is. Vice versa, the higher the IC50 value is, the weaker the ability the inhibitory ability of the compound is; Hillslope represents the slope of the fitted curve, generally around 1*; Bottom represents the minimum value of the curve obtained by data fitting, which is generally 0%±20%; Top represents the maximum value of the curve obtained by data fitting, which is generally 100%±20%. The experimental data were fitted by calculating and analyzing with Dotmatics data analysis software.

T1 sequence (Q06187 whole entry): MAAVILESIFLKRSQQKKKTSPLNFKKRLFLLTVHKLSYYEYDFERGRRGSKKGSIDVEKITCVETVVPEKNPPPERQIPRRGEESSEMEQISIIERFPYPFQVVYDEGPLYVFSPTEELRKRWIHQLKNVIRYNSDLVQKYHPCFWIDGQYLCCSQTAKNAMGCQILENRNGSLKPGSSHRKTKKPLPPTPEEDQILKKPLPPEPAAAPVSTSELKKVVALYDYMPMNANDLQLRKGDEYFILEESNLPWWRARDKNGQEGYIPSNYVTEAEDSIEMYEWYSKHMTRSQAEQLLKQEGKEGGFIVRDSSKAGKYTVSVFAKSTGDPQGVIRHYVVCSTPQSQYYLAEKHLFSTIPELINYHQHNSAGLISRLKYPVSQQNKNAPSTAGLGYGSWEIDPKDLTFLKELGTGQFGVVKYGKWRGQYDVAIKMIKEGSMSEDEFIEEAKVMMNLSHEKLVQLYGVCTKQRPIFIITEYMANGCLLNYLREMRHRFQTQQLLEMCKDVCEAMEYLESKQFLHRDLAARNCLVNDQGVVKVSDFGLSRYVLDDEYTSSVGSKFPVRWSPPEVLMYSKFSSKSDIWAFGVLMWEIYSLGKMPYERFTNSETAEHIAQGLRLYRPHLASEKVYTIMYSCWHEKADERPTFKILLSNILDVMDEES

| DC50 [nM] | Dmax [%] | Structure (SMILES) |
| --- | --- | --- |
| 0.978 | 96.7 | Cc1cc(-c2n[nH]c3ncc(-c4ccc(C5CCN(CC6CCN(c7ccc(N8CCC(=O)NC8=O)cc7)CC6)CC5)cc4)cc23)ccc1CNC(=O)c1noc(C(C)(C)C)n1 [Example 1, 5-(tert-butyl)-N-(4-(5-(4-(1-((1-(4-(2,4-dioxotetrahydropyrimidin-1(2H)-yl)phenyl)piperidin-4-yl)methyl)piperidin-4-yl)phenyl)-1H-pyrazolo[3,4-b]pyridin-3-yl)-2-methylbenzyl)-1,2,4-oxadiazole-3-carboxamide] |
| 0.953 | 96.2 | Cc1cc(-c2n[nH]c3ncc(-c4ccc(C5CCN(CCCOc6ccc(NC7CCC(=O)NC7=O)cc6)CC5)cc4)cc23)ccc1CNC(=O)c1noc(C(C)(C)C)n1 (stereo not shown) [Example 2, 5-(tert-butyl)-N-(4-(5-(4-(1-(3-(4-((2,6-dioxopiperidin-3-yl)amino)phenoxy)propyl)piperidin-4-yl)phenyl)-1H-pyrazolo[3,4-b]pyridin-3-yl)-2-methylbenzyl)-1,2,4-oxadiazole-3-carboxamide] |
| 0.714 | 97.1 | Cc1cc(-c2n[nH]c3ncc(-c4ccc(C5CCN(CCc6ccc(C7CCC(=O)NC7=O)cc6)CC5)cc4)cc23)ccc1CNC(=O)c1noc(C(C)(C)C)n1 (stereo not shown) [Example 3, 5-(tert-butyl)-N-(4-(5-(4-(1-(4-(2,6-dioxopiperidin-3-yl)phenethyl)piperidin-4-yl)phenyl)-1H-pyrazolo[3,4-b]pyridin-3-yl)-2-methylbenzyl)-1,2,4-oxadiazole-3-carboxamide] |
| 1.19 | 96.7 | Cc1cc(-c2n[nH]c3ncc(-c4ccc(C5CCN(CC6CCN(c7ccc(N8CCC(=O)NC8=O)cc7)CC6)CC5)cc4)cc23)ccc1CNC(=O)c1nc(C(C)(C)C)no1 [Example 4, 3-(tert-butyl)-N-(4-(5-(4-(1-((1-(4-(2,4-dioxotetrahydropyrimidin-1(2H)-yl)phenyl)piperidin-4-yl)methyl)piperidin-4-yl)phenyl)-1H-pyrazolo[3,4-b]pyridin-3-yl)-2-methylbenzyl)-1,2,4-oxadiazole-5-carboxamide] |
| 1.55 | 97 | Cc1cc(-c2n[nH]c3ncc(-c4ccc(C5CCN(CCC6CCN(c7ccc(N8CCC(=O)NC8=O)cc7)CC6)CC5)cc4)cc23)ccc1CNC(=O)c1nc(C(C)(C)C)no1 [Example 5, 3-(tert-butyl)-N-(4-(5-(4-(1-(2-(1-(4-(2,4-dioxotetrahydropyrimidin-1(2H)-yl)phenyl)piperidin-4-yl)ethyl)piperidin-4-yl)phenyl)-1H-pyrazolo[3,4-b]pyridin-3-yl)-2-methylbenzyl)-1,2,4-oxadiazole-5-carboxamide] |
| 2.94 | 97 | Cc1cc(-c2n[nH]c3ncc(-c4ccc(C5CCN(CCc6ccc(N7CCC(=O)NC7=O)cc6)CC5)cc4)cc23)ccc1CNC(=O)c1noc(C(C)(C)C)n1 [Example 6, 5-(tert-butyl)-N-(4-(5-(4-(1-(4-(2,4-dioxotetrahydropyrimidin-1(2H)-yl)phenethyl)piperidin-4-yl)phenyl)-1H-pyrazolo[3,4-b]pyridin-3-yl)-2-methylbenzyl)-1,2,4-oxadiazole-3-carboxamide] |
| 1.4 | 101 | Cc1cc(-c2n[nH]c3ncc(-c4ccc(CCN5CCC(c6ccc(C7CCC(=O)NC7=O)cc6)CC5)cc4)cc23)ccc1CNC(=O)c1noc(C(C)(C)C)n1 (stereo not shown) [Example 8, 3-(tert-butyl)-N-(4-(5-(4-(2-(4-(4-(2,6-dioxopiperidin-3-yl)phenyl)piperidin-1-yl)ethyl)phenyl)-1H-pyrazolol[3,4-b]pyridin-3-yl)-2-methylbenzyl)-1,2,4-oxadiazole-5-carboxamide] |
| 1.9 | 100 | Cc1cc(-c2n[nH]c3ncc(-c4ccc(C5CCN(CCc6ccc(C7CCC(=O)NC7=O)cc6)CC5)cc4)cc23)ccc1CNC(=O)c1nc(C(C)(C)C)no1 (stereo not shown) [Example 9, 3-(tert-butyl)-N-(4-(5-(4-(1-(4-(2,6-dioxopiperidin-3-yl)phenethyl)piperidin-4-yl)phenyl)-1H-pyrazolo[3,4-b]pyridin-3-yl)-2-methylbenzyl)-1,2,4-oxadiazole-5-carboxamide] |
| 10.8 | 97.1 | CC(C)(C)c1noc(C(=O)NCc2ccc(-c3n[nH]c4ncc(-c5ccc(C6CCN(CC7CCN(c8ccc(N9CCC(=O)NC9=O)cc8)CC7)CC6)cc5)cc34)cc2F)n1 [Example 10, 3-(tert-butyl)-N-(4-(5-(4-(1-((1-(4-(2,4-dioxotetrahydropyrimidin-1(2H)-yl)phenyl)piperidin-4-yl)methyl)piperidin-4-yl)phenyl)-1H-pyrazolo[3,4-b]pyridin-3-yl)-2-fluorobenzyl)-1,2,4-oxadiazole-5-carboxamide] |
| 5.98 | 94.1 | CC(C)(C)c1noc(C(=O)NCc2ccc(-c3n[nH]c4ncc(-c5ccc(N6CCN(CC7CCN(c8ccc(N9CCC(=O)NC9=O)cc8)CC7)CC6)cc5)cc34)cc2F)n1 [Example 11, 3-(tert-butyl)-N-(4-(5-(4-(4-((1-(4-(2,4-dioxotetrahydropyrimidin-1(2H)-yl)phenyl)piperidin-4-yl)methyl)piperazin-1-yl)phenyl)-1H-pyrazolo[3,4-b]pyridin-3-yl)-2-fluorobenzyl)-1,2,4-oxadiazole-5-carboxamide] |
| 5.17 | 95.7 | CC(C)(C)c1noc(C(=O)NCc2ccc(-c3n[nH]c4ncc(-c5ccc(C6CCN(CCC7CCN(c8ccc(N9CCC(=O)NC9=O)cc8)CC7)CC6)cc5)cc34)cc2F)n1 [Example 12, 3-(tert-butyl)-N-(4-(5-(4-(1-(2-(1-(4-(2,4-dioxotetrahydropyrimidin-1(2H)-yl)phenyl)piperidin-4-yl)ethyl)piperidin-4-yl)phenyl)-1H-pyrazolo[3,4-b]pyridin-3-yl)-2-fluorobenzyl)-1,2,4-oxadiazole-5-carboxamide] |
| 25.7 | 93 | CC(C)(C)c1noc(C(=O)NCc2ccc(-c3n[nH]c4ncc(-c5ccc(C6CCN(CCc7ccc(N8CCC(=O)NC8=O)cc7)CC6)cc5)cc34)cc2F)n1 [Example 13, 3-(tert-butyl)-N-(4-(5-(4-(1-(4-(2,4-dioxotetrahydropyrimidin-1(2H)-yl)phenethyl)piperidin-4-yl)phenyl)-1H-pyrazolo[3,4-b]pyridin-3-yl)-2-fluorobenzyl)-1,2,4-oxadiazole-5-carboxamide] |
| 4.74 | 95.2 | CC(C)(C)c1noc(C(=O)NCc2ccc(-c3n[nH]c4ncc(-c5ccc(C6CCN(CCc7ccc(C8CCC(=O)NC8=O)cc7)CC6)cc5)cc34)cc2F)n1 (stereo not shown) [Example 14, 3-(tert-butyl)-N-(4-(5-(4-(1-(4-(2,6-dioxopiperidin-3-yl)phenethyl)piperidin-4-yl)phenyl)-1H-pyrazolo[3,4-b]pyridin-3-yl)-2-fluorobenzyl)-1,2,4-oxadiazole-5-carboxamide] |
| 6.38 | 94.9 | CC(C)(C)c1nc(C(=O)NCc2ccc(-c3n[nH]c4ncc(-c5ccc(C6CCN(CC7CCN(c8ccc(N9CCC(=O)NC9=O)cc8)CC7)CC6)cc5)cc34)cc2F)no1 [Example 15, 5-(tert-butyl)-N-(4-(5-(4-(1-((1-(4-(2,4-dioxotetrahydropyrimidin-1(2H)-yl)phenyl)piperidin-4-yl)methyl)piperidin-4-yl)phenyl)-1H-pyrazolo[3,4-b]pyridin-3-yl)-2-fluorobenzyl)-1,2,4-oxadiazole-3-carboxamide] |
| 9.04 | 96.4 | CC(C)(C)c1noc(C(=O)NCc2ccc(-c3n[nH]c4ncc(-c5ccc(C6CCN(CCC7CCN(c8ccc(N9CCC(=O)NC9=O)c(F)c8)CC7)CC6)cc5)cc34)cc2F)n1 [Example 16, 3-(tert-butyl)-N-(4-(5-(4-(1-(2-(1-(4-(2,4-dioxotetrahydropyrimidin-1(2H)-yl)-3-fluorophenyl)piperidin-4-yl)ethyl)piperidin-4-yl)phenyl)-1H-pyrazolo[3,4-b]pyridin-3-yl)-2-fluorobenzyl)-1,2,4-oxadiazole-5-carboxamide] |
| 5.9 | 96.4 | CC(C)(C)c1noc(C(=O)NCc2ccc(-c3n[nH]c4ncc(-c5ccc(N6CCN(CCC7CCN(c8ccc(N9CCC(=O)NC9=O)c(F)c8)CC7)CC6)cc5)cc34)cc2F)n1 [Example 17, 3-(tert-butyl)-N-(4-(5-(4-(4-(2-(1-(4-(2,4-dioxotetrahydropyrimidin-1(2H)-yl)-3-fluorophenyl)piperidin-4-yl)ethyl)piperazin-1-yl)phenyl)-1H-pyrazolo[3,4-b]pyridin-3-yl)-2-fluorobenzyl)-1,2,4-oxadiazole-5-carboxamide] |
| > 2000 | 3.39 | COc1ccc(C(=O)N2CCC(c3ccc(-c4cnc5[nH]nc(-c6ccc(CNC(=O)c7nc(C(C)(C)C)no7)c(F)c6)c5c4)cc3)CC2)cc1N1CCC(=O)NC1=O [Example 18, 3-(tert-butyl)-N-(4-(5-(4-(1-(3-(2,4-dioxotetrahydropyrimidin-1(2H)-yl)-4-methoxybenzoyl)piperidin-4-yl)phenyl)-1H-pyrazolo[3,4-b]pyridin-3-yl)-2-fluorobenzyl)-1,2,4-oxadiazole-5-carboxamide] |
